Experimental data as given in ChEMBL document CHEMBL2417435, “The discovery of potent blockers of the canonical transient receptor channels, TRPC3 and TRPC6, based on an anilino-thiazole pharmacophore” (Bioorg Med Chem Lett, 2013).
Active and inactive are the calls of the source. No cut-off for these calls is given here.

Tests used:
[1] = target: T1, Short transient receptor potential channel 6 (Homo sapiens, UniProt Q9Y210); assay: Inhibition of human recombinant TRPC6 expressed in HEK293-MSRII cells assessed as carbachol-stimulated Ca2+/Na+ influx after 10 mins by FLIPR assay; assay type: cell-based
T1 sequence (Q9Y210 whole entry): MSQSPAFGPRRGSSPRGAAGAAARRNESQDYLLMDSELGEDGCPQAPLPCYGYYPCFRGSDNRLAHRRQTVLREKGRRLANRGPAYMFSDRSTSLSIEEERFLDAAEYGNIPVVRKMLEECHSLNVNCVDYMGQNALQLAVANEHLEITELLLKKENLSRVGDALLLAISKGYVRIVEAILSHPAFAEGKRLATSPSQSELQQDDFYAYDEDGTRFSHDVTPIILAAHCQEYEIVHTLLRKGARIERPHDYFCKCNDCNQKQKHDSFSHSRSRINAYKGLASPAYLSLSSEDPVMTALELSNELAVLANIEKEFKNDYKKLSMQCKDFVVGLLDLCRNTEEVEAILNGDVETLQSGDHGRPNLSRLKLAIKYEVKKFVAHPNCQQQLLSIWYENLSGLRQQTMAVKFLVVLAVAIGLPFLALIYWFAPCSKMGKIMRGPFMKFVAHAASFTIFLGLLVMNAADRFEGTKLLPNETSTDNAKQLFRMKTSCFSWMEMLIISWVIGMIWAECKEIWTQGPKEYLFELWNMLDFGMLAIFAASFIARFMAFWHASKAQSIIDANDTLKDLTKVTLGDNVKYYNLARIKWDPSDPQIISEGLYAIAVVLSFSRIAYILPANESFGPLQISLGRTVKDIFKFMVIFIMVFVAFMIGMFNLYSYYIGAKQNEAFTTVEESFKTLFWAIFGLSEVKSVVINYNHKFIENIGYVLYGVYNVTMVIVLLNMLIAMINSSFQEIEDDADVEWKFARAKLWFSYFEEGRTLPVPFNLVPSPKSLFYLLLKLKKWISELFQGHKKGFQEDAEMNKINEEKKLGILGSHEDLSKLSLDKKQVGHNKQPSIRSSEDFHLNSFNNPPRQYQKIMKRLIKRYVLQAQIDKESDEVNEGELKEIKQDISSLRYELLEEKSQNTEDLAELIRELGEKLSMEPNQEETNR

[2] = target: T2, Short transient receptor potential channel 3 (Homo sapiens, UniProt Q13507); assay: Inhibition of human recombinant TRPC3 expressed in HEK293-MSRII cells assessed as carbachol-stimulated Ca2+/Na+ influx after 10 mins by FLIPR assay; assay type: cell-based
T2 sequence (Q13507 whole entry): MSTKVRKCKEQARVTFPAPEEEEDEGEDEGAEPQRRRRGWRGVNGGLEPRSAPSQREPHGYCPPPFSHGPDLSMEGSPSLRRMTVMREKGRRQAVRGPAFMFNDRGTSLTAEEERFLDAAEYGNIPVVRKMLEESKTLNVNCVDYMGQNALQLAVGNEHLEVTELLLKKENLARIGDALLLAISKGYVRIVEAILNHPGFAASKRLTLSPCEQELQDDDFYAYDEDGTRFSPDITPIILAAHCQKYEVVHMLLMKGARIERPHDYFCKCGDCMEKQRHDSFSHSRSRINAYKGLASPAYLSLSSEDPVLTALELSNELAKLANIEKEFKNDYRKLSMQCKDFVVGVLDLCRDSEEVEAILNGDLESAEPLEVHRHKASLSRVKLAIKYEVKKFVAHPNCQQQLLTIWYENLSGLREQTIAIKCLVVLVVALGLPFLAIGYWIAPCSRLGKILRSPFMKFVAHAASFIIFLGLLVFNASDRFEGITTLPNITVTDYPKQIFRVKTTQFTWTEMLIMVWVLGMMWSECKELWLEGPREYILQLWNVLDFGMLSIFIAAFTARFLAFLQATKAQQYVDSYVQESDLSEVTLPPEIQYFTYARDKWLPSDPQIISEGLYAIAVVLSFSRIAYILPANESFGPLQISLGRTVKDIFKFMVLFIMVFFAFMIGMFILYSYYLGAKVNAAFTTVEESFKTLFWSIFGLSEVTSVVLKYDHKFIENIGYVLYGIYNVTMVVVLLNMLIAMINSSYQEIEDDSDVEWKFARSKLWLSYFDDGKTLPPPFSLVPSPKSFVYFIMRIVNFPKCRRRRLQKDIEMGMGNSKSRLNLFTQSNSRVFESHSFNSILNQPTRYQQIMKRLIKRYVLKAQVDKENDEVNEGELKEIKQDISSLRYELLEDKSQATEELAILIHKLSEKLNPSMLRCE

[3] = test system: Rattus norvegicus; assay: Dose normalized AUC in rat at 1.05 mg/kg, iv; assay type: ADME, organism-based; design: dose 1.05 mg/kg, route intravenous; conditions: in vivo
[4] = Oral bioavailability in rat at 1.05 mg/kg; assay type: ADME, organism-based; conditions: in vivo
[5] = Clearance in rat at 1.05 mg/kg, iv; assay type: ADME, organism-based; design: dose 1.05 mg/kg, route intravenous; conditions: in vivo
[6] = Mean residence time in rat at 1.05 mg/kg, iv; assay type: ADME, organism-based; design: dose 1.05 mg/kg, route intravenous; conditions: in vivo
[7] = Cmax in rat at 1.05 mg/kg, iv; assay type: ADME, organism-based; design: dose 1.05 mg/kg, route intravenous; conditions: in vivo
[8] = test system: Rattus norvegicus; assay: Volume of distribution at steady state in rat at 0.93 mg/kg, iv; assay type: ADME, organism-based; design: dose 0.93 mg/kg, route intravenous; conditions: in vivo
[9] = Oral bioavailability in rat at 0.93 mg/kg; assay type: ADME, organism-based; conditions: in vivo
[10] = test system: Rattus norvegicus; assay: Dose normalized AUC in rat at 0.93 mg/kg, iv; assay type: ADME, organism-based; design: dose 0.93 mg/kg, route intravenous; conditions: in vivo
[11] = test system: Rattus norvegicus; assay: Mean residence time in rat at 0.93 mg/kg, iv; assay type: ADME, organism-based; design: dose 0.93 mg/kg, route intravenous; conditions: in vivo
[12] = Cmax in rat at 0.93 mg/kg, iv; assay type: ADME, organism-based; design: dose 0.93 mg/kg, route intravenous; conditions: in vivo
[13] = target: T3, Short transient receptor potential channel 6 (Homo sapiens) (UniProt Q9Y210); assay: Inhibition of human recombinant TRPC6 expressed in HEK293 cells assessed as 1-oleoyl-2-acetyl-glycerol-stimulated current at 0.01 to 0.03 uM by whole cell electrophysiology assay; assay type: cell-based
T3 sequence (whole entry): T1 sequence (Q9Y210 whole entry)

[14] = target: T4, Short transient receptor potential channel 3 (Homo sapiens) (UniProt Q13507); assay: Inhibition of human recombinant TRPC3 expressed in HEK293 cells assessed as 1-oleoyl-2-acetyl-glycerol-stimulated current at 0.01 to 0.03 uM by whole cell electrophysiology assay; assay type: cell-based
T4 sequence (whole entry): T2 sequence (Q13507 whole entry)

`COc1ccc(Nc2nc(C(=O)N3CCC(c4ccccc4)CC3)cs2)cc1` showed an IC50 [1] of 1600 nM and an IC50 [2] of 2500 nM.
For `Cc1sc(Nc2cc3c(cc2F)OCO3)nc1C(=O)N1CCCC(C)C1C` (stereo unspecified), the IC50 [1] was 25 nM and the IC50 [2] was 160 nM.
`Cc1sc(Nc2ccc3c(c2)OCO3)nc1C(=O)N1CCc2ccccc2C1C` (stereo unspecified) gave an IC50 [1] of 32 nM and an IC50 [2] of 316 nM.
With `CC1CCCN(C(=O)c2csc(Nc3ccc4c(c3)OCO4)n2)C1C` (stereo unspecified) the AUC/dose [3] was 0.2 kg·L·h, the bioavailability [4] was < 1% and the clearance [5] was 86 mL/min/kg. It also gave an MRT [6] of 2.1 h, a Cmax [7] of 340 ng/mL and an IC50 [1] of 16 nM. For the same compound, the IC50 [2] was 80 nM.
Work on `Cc1ccc(Nc2nc(C(=O)N3CCCCC3C)cs2)cc1` (stereo unspecified) yielded an IC50 [1] of 630 nM and an IC50 [2] of 800 nM.
`CC1CCN(C(=O)c2csc(Nc3ccccc3Cl)n2)CC1` showed an IC50 [1] of 3160 nM and an IC50 [2] of 6300 nM.
With `COc1ccc(Nc2nc(C(=O)N3CCc4ccccc4C3)cs2)cc1` the Vdss [8] was 0.7 L/kg, the bioavailability [9] was 1% and the AUC/dose [10] was 0.14 kg·h/L. The MRT [11] was 0.3 h, the Cmax [12] was 250 ng/mL and the IC50 [1] was 500 nM. For the same compound, the IC50 [2] was 1260 nM.
`O=C(c1csc(Nc2ccc3c(c2)OCO3)n1)N1CCc2ccccc2C1` showed an IC50 [1] of 160 nM and an IC50 [2] of 500 nM.
With `Cc1sc(Nc2ccc(Cl)cc2F)nc1C(=O)N1CCC[C@@H](C)[C@H]1C` the IC50 [1] was 1600 nM and the IC50 [2] was 1000 nM.
Compound `CC1CCN(C(=O)c2csc(Nc3ccc4c(c3)OCO4)n2)CC1` has an IC50 [1] of 160 nM and an IC50 [2] of 400 nM.
With `CC1CCN(C(=O)c2csc(Nc3ccc(Cl)cc3)n2)CC1` the inhibition [13] was “Active”, the IC50 [1] was 800 nM and the inhibition [14] was “Active”. For the same compound, the IC50 [2] was 800 nM.
In the case of `Cc1ccc(Nc2nc(C(=O)N3CCC(C)CC3)cs2)cc1`, the IC50 [1] is reported as 400 nM and the IC50 [2] is reported as 630 nM.
